These results are taken from paper PMC4893628, “Chalcone-based Selective Inhibitors of a C4 Plant Key Enzyme as Novel Potential Herbicides” (Scientific Reports, 2016).

Experiment [1] relates to human breast cancer cells. Details: method as in PMID 11720850. The conditions noted are these: higher; cited from earlier work.
Experiment [2] concerns B. napus. Kind of experiment: Leaf gas exchange measurements, B. napus. Format: in vivo, Brassica napus. How it is done:
(§1) CO2-response curves were obtained on A. retroflexus and B. napus using a LI-6400XT portable photosynthesis system equipped with a fluorescence head and a leaf chamber size of 2 cm^2 (LI-COR, Lincoln, NE, USA) at a photon flux density of 1500 μmol m^−2 s^−1 and at 25 °C leaf temperature. Plants were grown at the research greenhouse of the IBG-2 Institute of Plant Sciences at Forschungszentrum Jülich, Germany (50°55′20″N 06°21′30″E), at a day/night length of 16 h/8 h, at an average day/night temperature of 23 °C/17 °C, relative humidity of 55%, and light intensity of 170 PAR. Plants were treated as described above at the three-leaf stage. Measurements were performed on the third leaf before treatment and one day after treatment. Each treatment was repeated four times. Information on statistical analysis is given in the Supplementary Information.

Experiment [3] has as its system A. retroflexus. Kind of experiment: Chlorophyll fluorescence measurements, A. retroflexus leaf discs. In kind it is in vivo, Amaranthus retroflexus. The conditions noted are these: 2 mM. How it is done: from a fixed distance at 90° view angle using the camera Canon EOS 70D equipped with a Canon EF 14 mm/2.8 L II USM lens. Leaf area of single leaves was measured using the ImageJ software31, by drawing the leaf contours using a drawing tablet (Cintiq 22HD, Wacom Europe GmbH, Krefeld, Germany). Conversion of pixel to cm was achieved by using a target of known size inside the image. Six days after the treatment, half of the plants were harvested. Leaf area was assessed using a leaf area meter (LI3100C Area Meter, LI-Cor, Lincoln, Nebraska, USA) and samples were oven-dried at 65°C for seven days to obtain dry weight . Thirteen days after the treatment, this procedure was repeated with the second half of plants.
Chlorophyll fluorescence measurements
For assessment of photosynthetic parameters, A. retroflexus plants were grown under the abovementioned conditions until the two-leaves growth stage. 6 mm leaf discs were cut out of the second leaf and immediately placed into 96-well-plates filled with 300 µL 0.125 % Hoagland’s solution with 1 mM MES-KOH (MES-monohydrate, Merck, Darmstadt, Germany) buffered to a pH of 6.5. The treatment solution contained 1.6 % (v/v) DMSO, 0.1 % (v/v) Tween® 20 and 2',3',4',3,4-Pentahydroxychalcone at a concentration of 2 mM. The control treatment contained 1.6 % (v/v) DMSO, 0.1 % (v/v) Tween® 20. Each leaf disc was treated with 1.5 µL solution placed on top of the leaf discs. Plates were sealed with Parafilm and placed into a climate cabinet with 12h/12h day/night-length and a temperature of 22°C at a light intensity of 130 µmol m-2 s-1. 96 hours after treatment, chlorophyll fluorescence measurements were performed on leaf discs using an Imaging PAM M-Series fluorescence camera (Heinz Walz GmbH, Effeltrich, Germany). Leaf discs were dark adapted for 30 minutes, minimum and maximum chlorophyll fluorescence were obtained and leaf discs were illuminated for 30 minutes

In experiment [4] the test system is B. napus. Kind of experiment: Chlorophyll fluorescence measurements, B. napus. The conditions noted are these: 2 mM. In kind it is in vivo, Brassica napus.
Experiment [5] concerns A. retroflexus. Kind of experiment: Leaf gas exchange measurements, A. retroflexus. In kind it is in vivo, Amaranthus retroflexus. How it is done:
as §1

[6] abbreviates: estimate valid for both measurement days (before and one day after treatment).

With `O=C(/C=C/c1ccccc1)c1ccc(O)c(O)c1O` [Compound 10, 2′,3′,4′-Trihydroxychalcone], in experiment [1], the “antiproliferative IC50 relative to IC50 for inhibition of C4 PEPC” value is on record as ~ 5 fold.

Regarding `O=C(/C=C/c1ccc(O)c(O)c1)c1ccc(O)c(O)c1O` [Compound 12, 2′,3′,4′,3,4-Pentahydroxy-chalcone], in the experiment on B. napus [2] (after treatment), the photosynthetic parameters entry is reported as “no changes”. For the same molecule, in the experiment with B. napus [2] (setting [6]), the “maximal electron transport rate (Jmax)” value is recorded as 144.2 (3.77), the “maximal rubisco carboxylation rate (Vcmax)” value is listed as 81.5 (3.33) and the “mitochondrial respiration (Rd)” value was 0.9 (0.66). Further, in the experiment on A. retroflexus [3], the “effective quantum yield of photosystem II” value was “increased”, the “maximum electron transfer rate” value is reported as “increased” and the non-photochemical quenching entry is “reduced”. The photosynthetic parameters result in the experiment with B. napus [4] is “no effect”. For the same molecule, the “Maximal PEP carboxylation rate (Vpmax)” value in the experiment on A. retroflexus [5] (Before treatment) came to 36.5 μmol m^−2 s^−1. Moreover, in the experiment on A. retroflexus [5] (Before treatment, listed as Okanin), the “Maximal PEP carboxylation rate (Vpmax)” value is listed as 36.5 (3.96) μmol m^−2 s^−1. Besides, in the experiment with A. retroflexus [5] (One day after treatment), the “Maximal PEP carboxylation rate (Vpmax)” value was determined as 17.2 μmol m^−2 s^−1. In addition, in the experiment on A. retroflexus [5] (One day after treatment, listed as Okanin), the “Maximal PEP carboxylation rate (Vpmax)” value was 17.2 (2.43) μmol m^−2 s^−1. Besides, the “decrease of Vpmax” value in the experiment with A. retroflexus [5] (one day after treatment) is “more than 50%”.
